Assay results as given in patent US8133986B2, “Methylated CpG island amplification (MCA)” (The Johns Hopkins University School of Medicine, priority 1998, dated 2012).

Key:
Assay type in all cases: cell-based, human
versican = experiment: RT-PCR expression of versican in methylated colon cancer cell lines after demethylating treatment; details: 1 μM for 2-5 days
From the text: To determine whether some of these clones truly represented genes silenced by methylation, we examined the versican gene in more detail. Versican is a secreted glycoprotein that appears to be regulated by the Rb tumor suppressor gene. MINT11 corresponds to part of exon 1 and part of intron 1 of the versican gene (FIG. 3A). Hypermethylation of the two SmaI sites in exon 1 and intron 1 in colon cancer cell lines was confirmed by both Southern blot analysis and MCA. In order to determine if this methylation was representative of the entire CGI, including the proximal promoter, PCR was performed on bisulfite-treated DNA using primers designed to amplify the region around the transcription start site of this gene. The PCR product was then digested with restriction enzymes that distinguish methylated from unmethylated DNA. […] In primary colon tumors, versican was hypermethylated in 17 out of 25 cases (68%). […] The level of methylation in normal colon mucosa increased with age of the patient (FIG. 3C), from an average of 6.9% in patients between 20 and 30 years of age, to an average of 28.9% in patients over 80. […] Using RT-PCR, we next examined the expression of versican in normal colon mucosa and CRC cell lines.
Total RNA was prepared from normal colon epithelium and tumor cell lines using TRIZOL (GIBCO-BRL). […] The expression of versican was determined by RT-PCR using the primers […]

CACNA1G = experiment: Re-expression of CACNA1G mRNA (RT-PCR) in methylated tumor cell lines after methyl-transferase inhibitor treatment; set-up: dose or concentration left out as unconfirmed; details: RKO, SW48, Raji (pattern 4) and MB-231, MB-435 (pattern 5) cell lines; treated
Protocol: To determine the expression of CACNA1G in normal and neoplastic human cells, RT-PCR was performed using cDNA from various normal tissues and from a panel of 27 tumor cell lines. CACNA1G was expressed ubiquitously in a variety of tissues and cell lines. In normal tissues expression was relatively low but easily detectable, while most cell lines had relatively high expression of CACNA1G. However, some cell lines had negligible or totally absent levels of CACNA1G expression. The results of CACNA1G expression was correlated with the detailed methylation analysis previously described. In this analysis, a remarkable pattern emerged. Methylation of region 1-4 and 8 had no effect on CACNA1G expression. However, there was a strong correlation between methylation of regions 5-7 and expression of the gene. In fact, all cell lines that lack methylation of this region strongly express the gene. All 6 cell lines with pattern 4 methylation studied had no detectable expression. Finally, the 7 cell lines with pattern 5 methylation (examples DLD-1 and MB-453) had variable levels of expression ranging from very low to near normal. […]
Total RNA was prepared from normal colon epithelium and tumor cell lines using TRIZOL (GIBCO-BRL). […] The expression of versican was determined by RT-PCR using the primers

[1] = tested on: region 7 of CACNA1G CpG island; experiment: Bisulfite-PCR methylation analysis of the 5′ CpG island of CACNA1G after treatment; details: same cell lines after treatment; bisulfite-PCR (FIG. 3C)
From the text: The CACNA1G CpG island is 4 kb, and is larger than many typical CpG islands. MINT31 corresponds to the 5′ edge of the island while CACNA1G is in the 3′ region. It is not known whether large CpG islands such as this are coordinately regulated with regards to protection from methylation, and aberrant methylation in cancer. To address this issue, the methylation status of the 5′ region of CACNA1G was studied using bisulfite-PCR of DNA from normal tissues as well as 35 human cancer cell lines from colon, lung, prostate, breast and hematopoietic tumors. The CpG island was divided into 8 regions and their methylation status was examined separately. The genomic DNA was treated with sodium bisulfite and PCR amplified using primers containing no or a minimum number of CpG sites. Methylated alleles were detected by digesting the PCR products using restriction enzymes which specifically cleave sites created or retained due to the presence of methylated CpGs. None of the regions was methylated in normal colon, consistent with a uniform protection against de-novo methylation. […]

## Nc1ncn([C@H]2C[C@H](O)[C@@H](CO)O2)c(=O)n1 [5-aza-deoxycytidine, 5-aza-2′-deoxycytidine]
versican
  Expression of versican: easily restored
CACNA1G
  CACNA1G mRNA expression: re-expressed
[1]
  Methylation of region 7 of CACNA1G: demethylation of region 7 was observed
